Read-outs that look alike come from different tables or passages of the source.
How the values were obtained:
[1] = target: T1, complexe de recapture de la dopamine (Rattus norvegicus, UniProt P23977); experiment: biochemical; format: binding; conditions: for IC50: read-out: [3H] BTCP IC50
T1 construct: expériences de compétition sur les membranes de striatum préparées comme ci-dessus; from tissue; host or cells: rat striatal membranes
Method: Exemple 35 : Affinité des composés pour les sites de liaison de la (³H)BTCP sur les membranes striatales de cerveaux de rats.
Les striata de cerveaux de rats rapidement disséqués dans la glace sont homogénéisés avec un ultra turax pendant 30 s (position 6) dans 50 volumes d'une solution de sucrose 0,32 M tamponnée par du Tris-HCl 10 mM à pH = 7,4. L'homogénat est centrifugé à 4°C à 1000g pendant 10 mln, puis le surnageant obtenu est centrifugé à 40000 g à 4°C pendant 30 min et les culots obtenus sont repris dans 1 ml de tampon par striatum.
L'affinité des composés pour le complexe de recapture de la dopamine est déterminée par des expériences de compétition sur les membranes de striatum préparées comme ci-dessus. Le ligand radioactif utilisé est la (³H)BTCP (Service des Molécules Marquées du CEA, Saclay France) à 55Ci/mmol.
Après 90 min à 4°C, 3 aliquots de 250 µl sont filtrés sous vide sur des filtres de fibre de verre GF/B (Whatman). La liaison non spécifique est obtenue dans des expériences parallè-les réalisées en présence de 10 µM de BTCP non marquée. Elle est soustraite de la liaison totale pour obtenir la liaison spécifique.

souris Swiss = experiment: Locomotor activity of mice in the Boissier-Simon actimeter (Example 38); format: in vivo; conditions: for Activité locomotrice, effect compared with BTCP: 10 mg/kg i.p.; for Activité locomotrice Variation (%) par rapport aux témoins (100%) pour la dose 10 mg/kg,i.p.: 30 min after administration, beams crossed from 20th to 35th minute
Method: Exemple 38 : Mesure de l'activité locomotrice.
L'activité locomotrice de souris Swiss (mâles CD1, 25-30 g, Charles River, St Aubin lès Elbeuf, France) est mesurée dans l'actimètre Boissier-Simon (Apelex, Bagneux, France).
30 minutes après l'administration des composés à tester (10 mg/kg, i.p.), les souris sont introduites dans des cages individuelles en Plexiglass (L = 26 cm, l = 20 cm, h = 10 cm), équipées de deux cellules photoélectriques situées à 1 cm au-dessus du plancher. Chaque cellule est reliée à un compteur électromécanique. "L'activité locomotrice" correspond au nombre de rayons traversés, de la 20ème à la 35ème minute après introduction dans les cages d'actimétrie.

recapture de la dopamine = target: T2, recapture de la dopamine (Rattus norvegicus, UniProt P23977); experiment: Inhibition of (3H)DA reuptake in primary cultured neurons (Example 39); format: cell-based; conditions: for Recapture de (³H)DA nH (nombre de Hill) / IC50: cultured neurons from rat embryos; for IC50: 10⁻⁸M (3H)DA, 10 min at 37°C, read-out: Recapture de (³H)DA IC 50
T2 construct: Cultures primaires de neurones; endogenous in cells; host or cells: primary neurons from substantia nigra of 14-day rat embryos
T2 sequence (P23977 whole entry): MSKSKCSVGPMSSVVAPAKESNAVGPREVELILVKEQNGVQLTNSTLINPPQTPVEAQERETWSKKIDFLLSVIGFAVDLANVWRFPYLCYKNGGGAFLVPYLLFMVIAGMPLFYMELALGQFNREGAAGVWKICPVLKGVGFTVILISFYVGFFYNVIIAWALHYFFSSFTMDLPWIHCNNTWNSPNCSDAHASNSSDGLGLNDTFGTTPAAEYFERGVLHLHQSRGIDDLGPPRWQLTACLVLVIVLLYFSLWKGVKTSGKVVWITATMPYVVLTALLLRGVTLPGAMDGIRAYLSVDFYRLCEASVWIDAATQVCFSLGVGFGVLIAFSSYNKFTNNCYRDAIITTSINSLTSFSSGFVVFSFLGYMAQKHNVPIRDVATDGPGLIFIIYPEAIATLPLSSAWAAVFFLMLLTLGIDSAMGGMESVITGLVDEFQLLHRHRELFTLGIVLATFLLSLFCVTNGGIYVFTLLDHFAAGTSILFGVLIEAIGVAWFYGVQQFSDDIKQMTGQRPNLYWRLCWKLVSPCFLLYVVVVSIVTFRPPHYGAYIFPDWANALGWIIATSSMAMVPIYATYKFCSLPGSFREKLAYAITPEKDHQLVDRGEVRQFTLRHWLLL
Excerpt: Exemple 39 : Etude de l'inhibition de la recapture de la dopamine et de la noradrénaline sur des neurones en culture.
a) Cultures primaires de neurones.
La substance noire, structure riche en cellules dopaminergiques, ou le locus coeruleus, contenant les corps cellulaires noradrénergiques, sont disséqués à partir d'embryons de rats de 14 jours, âge auquel les cellules ont terminé leur mitose. Les cellules sont dissociées mécaniquement dans un milieu sans calcium ni magnésium.
L'ensemencement est réalisé dans des puits prétraités avec de la D-polylysine, à une densité de 150 000 cellules/puits, dans 400µl de milieu de culture composé de 70% de M.E.M.; 25% de Hanks; 5% de Nu-serum décomplémenté; plus 3% de D-glucose (1/20).
Le milieu de culture est renouvelé au tiers tous les trois jours, jusqu'à 9 jours de développement "in vitro", âge auquel les cellules paraissent matures. A cet âge, la culture ne présente pas encore de cellule gliales.
b) Test d'inhibition de la recapture de la dopamine et de la noradrénaline.
On pré-incube les cellules obtenues en a) pendand 15min, à la température ambiante, avec 40µl d'un tampon constitué par le Ringer Phosphate-disodique 5 mM pH=7,6 dont la composition en concentrations finales est la suivante : NaCl 120mM; CaCl₂ 2,6 mM; MgCl₂ 1,3 mM; KCl 5mM; D-glucose 3 mM; Na₂HPO₄5mM.
On incube ensuite pendant 10min à 37°C avec le même tampon en présence de (³H)Da ou de (³H)NA à une concentration finale 10⁻⁸M et une dilution isotopique de 1/5, et de concentrations croissantes en composé à tester dans un volume final de 400µl.
On rince ensuite trois fois rapidement avec 750µl du même tampon à 4°C, ce qui correspond à une durée totale de 10 secondes.
On récupère alors les cellules dans 2 fois 500µl de NaOH 0,5N et on détermine leur radioactivité par comptage avec 4ml de scintillant et 50µl d'acide acétique glacial.
Avant les rinçages, on a prélevé un aliquote de 100µl du milieu d'incubation et on a déterminé la radioactivité libre sur celui-ci par comptage avec 5ml de scintillant.
La recapture spécifique de la (³H)DA ou de (³H)NA est déduite de la différence entre la recapture totale et la diffusion passive pour chacun des composés testés.

[2] = rat striatal membranes, 0,2 nM (3H)BTCP, 90 min at 4°C
[3] = ratio of IC50 at the PCP receptor to IC50 at the dopamine reuptake complex

T1 sequence (P23977 whole entry, one chain of several): as the sequence (P23977 whole entry) above

| SMILES | IC50 [1, 2] | Sélectivité IC50[^3H]TCP / IC50[^3H]BTCP [1, 3] | Activité locomotrice, effect compared with BTCP (souris Swiss) | Activité locomotrice Variation (%) par rapport aux témoins (100%) pour la dose 10 mg/kg,i.p. (souris Swiss) | Recapture de (³H)DA nH (nombre de Hill) (recapture de la dopamine) | IC50 (recapture de la dopamine) | Sélectivité pour le complexe de recapture de la dopamine comparé au récepteur de la PCP, result in words [1] | Sélectivité IC50[^3H]TCP / IC50[^3H]BTCP ([1]; rat) | IC50 [1] | Recapture de la dopamine, result in words (recapture de la dopamine; cultured neurons) |
| --- | --- | --- | --- | --- | --- | --- | --- | --- | --- | --- |
| CC1CCCN(C2(c3cc4ccccc4s3)CCCCC2)C1 (centres unmarked) [composé n^o 2, (benzo(b)thiophényl-2)-1 ((méthyl-3 pipéridino)-1)-1 cyclohexane] | 13.3 nM | 3910 | effet supérieur à celui du BTCP | +160±25% | 0,95 | 70 nM | – | – | – | – |
| C[C@H]1CC[C@](c2cc3ccccc3s2)(N2CCCCC2)CC1 [composé n^o 20, (benzo(b)thiophényl-2)-1-t-méthyl-4-r-(pipéridino-1)-1 cyclohexane] | 20.7 nM | 5410 | – | +40±22% | – | – | – | – | – | – |
| C[C@H]1CC[C@@](c2cc3ccccc3s2)(N2CCCCC2)CC1 [composé n^o 21, (benzo(b)thiophényl-2)-1 c-méthyl-4-r-(pipéridino-1)-1 cyclohexane] | 6.9 nM | >>14493 | effet supérieur à celui du BTCP | +175±27% | 1,07 | 8 nM | très bons résultats | – | – | – |
| BrCC1CCCN(C2(c3cc4ccccc4s3)CCCCC2)C1 (centres unmarked) [composé n^o 10, (benzo(b)thiophényl-2)-1 ((bromométhyl-3 pipéridino)-1)-1 cyclohexane] | 34.5 nM | >>2898 | – | +30±19% | – | – | – | – | – | – |
| c1ccc2sc(C3(N4CCCCC4)CCCCC3)cc2c1 [BTCP, (benzo(b)thiophényl-2)-1 (pipéridino -1) cyclohexane, reference compound] | – | – | – | +122±12% | – | – | – | 2380 | 8.4 nM | – |
| CC1CC(C)CN(C2(c3cc4ccccc4s3)CCCCC2)C1 (centres unmarked) [composé n^o 6, (benzo(b)thiophényl-2)-1 ((diméthyl-3,5 pipéridino)-1)-1 cyclohexane] | 12.7 nM | >>7874 | – | +84±12% | 0,95 | 1.47 nM | – | – | – | inhibiteur très puissant |
| OC1CCN(C2(c3cc4ccccc4s3)CCCCC2)CC1 [composé 26, (benzo(b)thiophényl-2)-1( (ol-4-pipéridino)-1)-1 cyclohexane] | 15.9 nM | 2006 | – | +252±45% | 1,09 | 17 nM | – | – | – | – |
| c1ccc2oc(C3(N4CCCCC4)CCCCC3)cc2c1 [composé n^o 4, (benzo(b)furannyl-2)-1 (pipéridino-1)-1 cyclohexane] | 19.1 nM | 2094 | effet supérieur à celui du BTCP | +169±19% | – | – | – | – | – | – |
| CCCN(CCC)C1(c2cc3ccccc3s2)CCCCC1 [composé no 3, (benzo(b)thiophényl-2)-1 (dipropylamino-1)-1 cyclohexane] | 7.2 nM | 58889 | – | +53±23% | – | – | très bons résultats | – | – | – |

— patent publication EP0406111A1, “Substituted arylamines and heteroarylamines, process for their preparation and pharmaceutical composition containing them” (SOCIETE DE CONSEILS DE […] D'APPLICATIONS SCIENTIFIQUES …, priority 1989, dated 1991)
